Measurements reported in BindingDB's records for PubMed 35119267 (University of Toronto Mississauga, 2022).

Target: Histone deacetylase 3 (Homo sapiens, UniProt O15379)
Assay: Inhibition of full length human recombinant HDAC3 expressed in Sf9 baculovirus system using FAM-labeled acetylated peptide as substrate by measuring fluorescence intensity by EMSA method

Chain of Histone deacetylase 3 (O15379 whole entry): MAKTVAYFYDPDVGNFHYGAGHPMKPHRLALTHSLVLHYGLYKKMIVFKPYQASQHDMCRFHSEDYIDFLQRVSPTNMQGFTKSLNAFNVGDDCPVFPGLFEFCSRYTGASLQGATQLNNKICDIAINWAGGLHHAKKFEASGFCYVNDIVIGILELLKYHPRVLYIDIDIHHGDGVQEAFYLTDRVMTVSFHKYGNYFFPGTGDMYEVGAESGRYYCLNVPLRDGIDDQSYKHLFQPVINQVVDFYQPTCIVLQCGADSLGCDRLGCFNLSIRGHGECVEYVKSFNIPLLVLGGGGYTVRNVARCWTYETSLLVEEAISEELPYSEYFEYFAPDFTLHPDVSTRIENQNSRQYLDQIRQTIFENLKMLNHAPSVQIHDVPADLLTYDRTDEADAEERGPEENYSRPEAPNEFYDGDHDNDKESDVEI

- IC50: > 1 µM
Compound: O=C(NO)c1ccc(CN(C2CC2)S(=O)(=O)c2cc(F)c(F)c(F)c2F)cc1
